In article PMC8651714 (Scientific Reports, 2021):
Where two headings read alike, the source gives them in different places.

Legend:
human MAO-A (hMAO-A) = details: cited from earlier work
human MAO-B (hMAO-B) = details: cited from earlier work
hMAO-B = target: T1, hMAO-B (Homo sapiens, UniProt P27338); test: biochemical; details: for Ki: inhibition constant from secondary plots
T1 sequence (P27338 1-520): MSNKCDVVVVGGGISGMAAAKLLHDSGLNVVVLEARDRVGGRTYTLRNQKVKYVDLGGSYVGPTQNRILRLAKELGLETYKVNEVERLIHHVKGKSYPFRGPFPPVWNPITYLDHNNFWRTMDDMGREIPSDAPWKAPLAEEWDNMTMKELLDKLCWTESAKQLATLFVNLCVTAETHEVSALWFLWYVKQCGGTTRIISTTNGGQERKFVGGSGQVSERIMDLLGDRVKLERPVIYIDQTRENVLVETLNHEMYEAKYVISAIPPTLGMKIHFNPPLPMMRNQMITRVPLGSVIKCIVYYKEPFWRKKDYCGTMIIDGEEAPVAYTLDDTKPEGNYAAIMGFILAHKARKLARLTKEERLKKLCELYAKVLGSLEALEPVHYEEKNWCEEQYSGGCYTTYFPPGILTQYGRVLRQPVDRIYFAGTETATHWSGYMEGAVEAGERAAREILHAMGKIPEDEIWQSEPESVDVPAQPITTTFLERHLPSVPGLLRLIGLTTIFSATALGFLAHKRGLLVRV

rat brain MAO-A = details: cited from earlier work
hMAO-A = target: T2, hMAO-A (Homo sapiens, UniProt P21397); test: Recombinant hMAO-A inhibitory assay (luminescent) and enzyme kinetics; assay type: biochemical
T2 construct: purchased Sigma Aldrich
T2 sequence (P21397 1-527): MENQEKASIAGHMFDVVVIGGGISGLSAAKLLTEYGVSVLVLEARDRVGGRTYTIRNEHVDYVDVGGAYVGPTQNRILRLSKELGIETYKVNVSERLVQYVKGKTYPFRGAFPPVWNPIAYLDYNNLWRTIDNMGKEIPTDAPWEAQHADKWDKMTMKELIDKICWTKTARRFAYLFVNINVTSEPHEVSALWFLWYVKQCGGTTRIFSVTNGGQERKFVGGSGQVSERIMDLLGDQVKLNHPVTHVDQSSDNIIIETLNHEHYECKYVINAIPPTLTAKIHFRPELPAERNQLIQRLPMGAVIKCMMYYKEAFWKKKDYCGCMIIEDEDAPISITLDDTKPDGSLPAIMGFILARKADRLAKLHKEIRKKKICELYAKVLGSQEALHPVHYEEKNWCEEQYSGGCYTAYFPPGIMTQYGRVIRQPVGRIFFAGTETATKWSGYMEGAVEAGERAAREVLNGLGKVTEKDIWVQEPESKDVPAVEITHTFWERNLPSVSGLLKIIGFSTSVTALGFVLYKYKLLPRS

[1] = target: T3, human vasopressin V1A receptor (Homo sapiens, UniProt P37288); details: agonist binding, [3H]AVP, 100 µM, duplicate
[2] = target: T4, human dopamine D4 receptor (Homo sapiens, UniProt P21917); test: Radioligand binding assay, [3H]methylspiperone, CHO-D4R membranes; details: duplicate, read-out: % Inhibition of control-specific binding
T4 construct: host or cells: CHO
T4 sequence (P21917 1-419): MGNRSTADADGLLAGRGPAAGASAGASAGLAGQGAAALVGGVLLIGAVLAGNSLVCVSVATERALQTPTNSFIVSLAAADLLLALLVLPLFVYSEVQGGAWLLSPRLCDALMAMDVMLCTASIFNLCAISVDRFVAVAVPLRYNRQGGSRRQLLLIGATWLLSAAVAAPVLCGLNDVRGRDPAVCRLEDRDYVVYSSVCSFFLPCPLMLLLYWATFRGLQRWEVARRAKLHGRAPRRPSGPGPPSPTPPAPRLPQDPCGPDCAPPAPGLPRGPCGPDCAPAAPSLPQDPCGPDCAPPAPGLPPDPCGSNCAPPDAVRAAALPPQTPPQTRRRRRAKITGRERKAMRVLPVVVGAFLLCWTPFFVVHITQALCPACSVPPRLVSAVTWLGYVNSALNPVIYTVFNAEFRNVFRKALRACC

[3] = target: human dopamine D1 receptor (Homo sapiens, UniProt P21728); test: cell-based
[4] = target: T5, human dopamine D2L receptor (Homo sapiens, UniProt P14416); test: Radioligand binding assay, [3H]methylspiperone, HEK-D2LR membranes; details: duplicate
T5 construct: host or cells: HEK-293

[5] = target: T6, human dopamine D3 receptor (Homo sapiens, UniProt P35462); details: 100 µM
[6] = target: T6, human dopamine D3 receptor; test: cell-based
[7] = target: T3, human vasopressin V1A receptor; test: cell-based
MAO from bovine serum = tested on: MAO from bovine serum; design: method as in PMID 1913999; details: read-out: Concentration for 50% inhibition of MAO activity; cited from earlier work
rat brain MAO-B = details: cited from earlier work
[8] = ILG isolated from Colvillea racemosa

COc1cc(O)ccc1C(=O)/C=C/c1ccc(O)cc1 [3-Deoxysappanchalcone, 2′-methoxy-4′,4″-dihydroxychalcone, reference compound]
IC50 (human MAO-A (hMAO-A)): 10.1 µM
IC50 (human MAO-B (hMAO-B)): 680 nM

O=C(/C=C/c1ccc(O)cc1)c1ccc(O)cc1O [Isoliquiritigenin, 4,2′,4′-Trihydroxychalcone]
IC50 (human MAO-A (hMAO-A); [8]): 22.7 ± 1.84 µM
IC50 (human MAO-A (hMAO-A); earlier report): 41.5 µM
IC50 (hMAO-B): 330 ± 20 nM
Ki (hMAO-B; hMAO-B Kic): 94 nM
Ki (hMAO-B; hMAO-B Kiu): 710 ± 10 nM
IC50 (rat brain MAO-A; ILG isolated from Sinofranchetia chinensis, rat brain, read-out: rMAO-A IC50): 13.9 µM
rMAO-A inhibition type (rat brain MAO-A; previous study): non-competitive inhibition
Ki (hMAO-A; inhibition constant from secondary plots): 160 nM
IC50 (hMAO-A; recombinant hMAO-A, mean ± standard deviation of triplicate assays): 680 ± 30 nM
% Inhibition of control-specific binding [1]: 60.8%
inhibition at 100 µM [2]: 44.8%
IC50 [3]: 68.9 ± 0.2 µM
% Inhibition of control-specific binding ([4]; 100 µM): no binding affinity
inhibition at 100 µM ([4]; read-out: % Inhibition of control-specific binding): 21.3%
% Stimulation (percentage of control agonist response) [5]: 92.7 ± 0.5%
EC50 [6]: 62.3 ± 0.2 µM
EC50 [7]: 78.6 ± 2.7 µM
IC50 (MAO from bovine serum): > 200 µM
IC50 (rat brain MAO-B; ILG isolated from Sinofranchetia chinensis, rat brain, read-out: rMAO-B IC50): 47.2 µM
rMAO-B inhibition type (rat brain MAO-B; previous study): mixed inhibition
IC50 (human MAO-B (hMAO-B); [8]): 510 ± 10 nM
IC50 (human MAO-B (hMAO-B); earlier report): 21800 nM

O=C1C[C@@H](c2ccc(O)cc2)Oc2cc(O)ccc21 [LG, reference compound]
IC50 (human MAO-A (hMAO-A)): 0.27 ± 0.04 µM
IC50 (human MAO-B (hMAO-B)): 98 nM
